From US20250280861A1, “SWEETENER COMPOSITIONS” (Firmenich Incorporated, priority 2022, published 2025)
pEC50: −log10 of the molar value.

What follows are molecules tested against T1, hT1R2/T1R3 taste receptor (Homo sapiens, UniProt Q7RTX0+Q8TE23) (assay: agonist activity against the hT1R2/T1R3 taste receptor (sweet receptor based assay)). Conditions: not given.
T1 sequence (Q8TE23 20-839): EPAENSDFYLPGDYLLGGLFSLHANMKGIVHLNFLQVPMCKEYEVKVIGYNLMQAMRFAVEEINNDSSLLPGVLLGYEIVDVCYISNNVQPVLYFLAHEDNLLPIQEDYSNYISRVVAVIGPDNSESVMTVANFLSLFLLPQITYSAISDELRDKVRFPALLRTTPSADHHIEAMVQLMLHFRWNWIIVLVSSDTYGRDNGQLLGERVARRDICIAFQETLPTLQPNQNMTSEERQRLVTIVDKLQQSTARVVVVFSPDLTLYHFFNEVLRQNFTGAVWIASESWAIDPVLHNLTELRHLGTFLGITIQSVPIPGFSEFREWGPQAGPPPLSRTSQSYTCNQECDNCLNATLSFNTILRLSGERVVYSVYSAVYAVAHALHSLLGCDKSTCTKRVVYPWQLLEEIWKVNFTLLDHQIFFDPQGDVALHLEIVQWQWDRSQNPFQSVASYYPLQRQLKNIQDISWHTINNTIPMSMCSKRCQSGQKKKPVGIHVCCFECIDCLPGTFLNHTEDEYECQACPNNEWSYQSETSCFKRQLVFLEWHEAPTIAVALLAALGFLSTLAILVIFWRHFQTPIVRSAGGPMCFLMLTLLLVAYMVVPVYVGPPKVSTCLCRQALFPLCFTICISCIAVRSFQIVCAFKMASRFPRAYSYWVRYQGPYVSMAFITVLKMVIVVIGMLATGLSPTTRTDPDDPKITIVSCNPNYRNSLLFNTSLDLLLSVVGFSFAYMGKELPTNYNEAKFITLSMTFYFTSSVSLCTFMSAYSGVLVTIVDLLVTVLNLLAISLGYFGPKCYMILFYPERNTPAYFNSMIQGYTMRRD
T1 sequence (Q7RTX0 21-852): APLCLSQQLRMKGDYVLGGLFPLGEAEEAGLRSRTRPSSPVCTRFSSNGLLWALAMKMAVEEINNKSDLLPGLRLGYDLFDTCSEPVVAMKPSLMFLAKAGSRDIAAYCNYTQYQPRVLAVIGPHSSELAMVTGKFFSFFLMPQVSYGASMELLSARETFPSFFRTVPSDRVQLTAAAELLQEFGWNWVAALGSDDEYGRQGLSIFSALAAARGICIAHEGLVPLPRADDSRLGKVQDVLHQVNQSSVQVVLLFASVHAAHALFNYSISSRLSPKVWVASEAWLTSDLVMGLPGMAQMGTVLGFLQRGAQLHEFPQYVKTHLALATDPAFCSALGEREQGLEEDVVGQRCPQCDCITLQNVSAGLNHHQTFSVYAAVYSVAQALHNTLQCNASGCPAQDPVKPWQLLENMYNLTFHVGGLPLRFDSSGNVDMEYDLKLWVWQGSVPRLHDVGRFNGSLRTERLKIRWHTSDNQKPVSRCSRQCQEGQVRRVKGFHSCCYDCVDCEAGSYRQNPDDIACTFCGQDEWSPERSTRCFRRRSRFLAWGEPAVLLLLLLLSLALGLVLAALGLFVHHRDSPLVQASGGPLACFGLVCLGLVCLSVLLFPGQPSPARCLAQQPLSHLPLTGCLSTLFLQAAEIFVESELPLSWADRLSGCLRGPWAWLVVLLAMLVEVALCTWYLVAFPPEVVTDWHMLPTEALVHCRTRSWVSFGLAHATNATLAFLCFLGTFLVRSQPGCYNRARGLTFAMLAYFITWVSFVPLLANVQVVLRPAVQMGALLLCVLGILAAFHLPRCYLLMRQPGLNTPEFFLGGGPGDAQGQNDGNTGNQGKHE
Format: cell-based
Experimental: Compounds described in this application show moderate to potent agonist effect on the sweet receptor based assay. Potencies (EC50 values, e.g. see Tables 1-3) for agonist activity were measured against the hT1R2/T1R3 taste receptor. FIG. 1 exemplifies the data generated during the screening to determine EC50 values.

Row | SMILES | pEC50
1 | CCC(C)(C)NC(=O)C(C)(C)N1CCC(C#N)(c2cccc(F)c2F)CC1 [Compound 127] | 5.82
2 | CC(C)(C(=O)NC1CC1)N1CCC(C#N)(c2cccc(F)c2F)CC1 [Compound 128] | 5.77
3 | CC(C)(C)NC(=O)C(C)(C)N1CCC(C#N)(c2cccc(F)c2F)CC1 [Compound 126] | 5.70
4 | COCC1(c2ccccc2)CCN(C(C)(C)C(=O)NCC(C)C)CC1 [Compound 120] | < 5.00
5 | COCC(C(=O)NCC(C)C)N1CCC(C#N)(c2cccc(F)c2F)CC1 (stereo not drawn) [Compound 129] | 5.37

Same assay, conditions: agonist activity, hT1R2/T1R3; read-out: Sweet EC50

Row | SMILES | pEC50
6 | COCc1cccc(N2CCN(C(C)(C)C(=O)NCC(C)C)CC2)c1F [Compound 4, 2-(4-(2-fluoro-3-(methoxymethyl)phenyl)piperazin-1-yl)-N-isobutyl-2-methylpropanamide] | 5.68
7 | COCc1ccccc1C1=CCN(C(C)(C)C(=O)NCC(C)C)CC1 [Compound 64] | < 5.00
8 | COc1cccc(C2=CCN(C(C)(C)C(=O)NCC(C)C)CC2)c1F [Compound 68] | < 5.00
9 | Cc1cccc(N2CCN(C(C)C(=O)NCC(C)C)CC2)c1C (stereo not drawn) [Compound 29] | 5.85
10 | Cc1cccc(N2CCN(C(C)(C)C(=O)NCC(C)(C)C)CC2)c1C [Compound 18] | < 5.00
11 | Cc1cccc(N2CCN(C(C)(C)C(=O)NC(C)(C)CO)CC2)c1C [Compound 24] | < 5.00
12 | CC(C)CNC(=O)C(C)(C)N1CCC(c2cccc(CN(C)C)c2)CC1 [Compound 103] | < 5.00
13 | CC(C)CNC(=O)C(C)(C)N1CC=C(c2ccccc2F)CC1 [Compound 57] | 5.80
14 | CC(C)CNC(=O)C(C)(C)N1CC=C(c2cccc(CO)c2F)CC1 [Compound 66] | < 5.00
15 | CC(C)CNC(=O)C(C)(C)N1CCC(c2cccc(F)c2F)CC1 [Compound 94] | 6.85
16 | Cc1cccc(N2CCN(C(C)(C)C(=O)NCC3CC3)CC2)c1C [Compound 14] | 5.30
17 | Cc1cccc(N2CCN(C(C)(C)C(=O)NCC3CCCCCC3)CC2)c1C [Compound 17] | < 5.00
18 | COC(=O)c1ccccc1N1CCN(C(C)(C)C(=O)NCC(C)C)CC1 [Compound 49] | < 5.00
19 | Cc1ccccc1N1CCN(C(C)(C)C(=O)NCC(C)C)CC1 [Compound 46] | 5.37
20 | CC(C)CNC(=O)C(C)N1CCC(c2ccccc2)CC1 (stereo not drawn) [Compound 90] | 5.33
21 | Cc1cccc(N2CCN(C(C)(C)C(=O)NCC3CCCCC3)CC2)c1C [Compound 16] | < 5.00
22 | Cc1ccncc1C1=CCN(C(C)(C)C(=O)NCC(C)C)CC1 [Compound 75] | < 5.00
23 | CC(C)(C(=O)NC1CCCC1)N1CCC(c2ccccc2)CC1 [Compound 84] | 5.60
24 | Cc1cccc(N2CCN(C(C)(C)C(=O)NCC(C)C)CC2)c1F [Compound 36] | 5.62
25 | Cc1ccc(C)c(N2CCN(C(C)(C)C(=O)NCC(C)C)CC2)c1 [Compound 38] | < 5.00
26 | COCc1cccc(C2=CCN(C(COC)C(=O)NCC(C)C)CC2)c1F (stereo not drawn) [Compound 55, 2-(4-(2-fluoro-3-(methoxymethyl)phenyl)-3,6-dihydropyridin-1(2H)-yl)-N-isobutyl-3-methoxypropanamide] | 5.85
27 | CC(C)CNC(=O)CN1CCC(c2ccccc2)CC1 [Compound 89] | 5.17
28 | CC(C)CNC(=O)C(C)(C)N1CCN(c2cccc(CO)c2F)CC1 [Compound 35] | < 5.00
29 | CC(C)CNC(=O)C(C)(C)N1CCN(c2cc(F)ccc2F)CC1 [Compound 39] | < 5.00
30 | CC(C)CNC(=O)C(C)(C)N1CCC2(CC1)COc1ccccc12 [Compound 122] | 5.60
31 | CC(C)CNC(=O)C(C)(C)N1CCC(c2cccc(CO)c2F)CC1 [Compound 99] | 5.33
32 | COCc1cccc(C2CCN(C(C)(C)C(=O)NCC(C)C)CC2)c1F [Compound 95] | 6.30
33 | CC(C)CNC(=O)C(C)(C)N1CCC(c2cccc(F)c2)CC1 [Compound 96] | 6.22

Row | SMILES | pEC50
34 | COCc1cccc(C2CCN(C(C)(C)C(=O)NCC(C)C)CC2)c1 [Compound 111] | 5.51
35 | Cc1ccncc1C1CCN(C(C)(C)C(=O)NCC(C)C)CC1 [Compound 107] | < 5.00
36 | CC(C)CNC(=O)C(C)(C)N1CCN(c2ccccc2CO)CC1 [Compound 6] | < 5.00
37 | Cc1cccc(N2CCN(C(C)(C)C(=O)NCC3CCCC3)CC2)c1C [Compound 15] | 5.16
38 | Cc1cccc(C2=CCN(C(C)(C)C(=O)NCC(C)C)CC2)n1 [Compound 77] | < 5.00
39 | Cc1cccc(N2CCN(C(C)(C)C(=O)NC3CCCCC3)CC2)c1C [Compound 13] | 5.03
40 | CC(C)CNC(=O)C(C)(C)N1CC=C(c2cncc(C#N)c2)CC1 [Compound 70] | < 5.00
41 | CC(C)CNC(=O)C(C)(C)N1CC=C(c2ccccc2C(=O)N(C)C)CC1 [Compound 73] | < 5.00
42 | CC(C)CNC(=O)C(C)(C)N1CCN(c2ccccc2C(F)(F)F)CC1 [Compound 50] | < 5.00
43 | CC(C)CNC(=O)C(C)(C)N1CCN(c2cnccn2)CC1 [Compound 54] | < 5.00
44 | CC(C)CNC(=O)C(C)(C)N1CC=C(c2cccc(C(=O)N(C)C)c2)CC1 [Compound 74] | < 5.00
45 | CC(C)CNC(=O)C(C)(C)N1CC=C(c2cccc3c2OCO3)CC1 [Compound 72] | < 5.00
46 | Cc1cccc(C2=CCN(C(C)(C)C(=O)NCC(C)C)CC2)c1F [Compound 65] | 5.54
47 | COCc1cccc(C2=CCN(C(C)(C)C(=O)NCC(C)C)CC2)c1F [Compound 60] | 5.92
48 | COCCNC(=O)C(C)(C)N1CCN(c2cccc(C)c2C)CC1 [Compound 22] | < 5.00
49 | CC(C)CNC(=O)C(C)(C)N1CCCC(c2ccccc2)CC1 (stereo not drawn) [Compound 117] | 4.96
50 | CC(C)CNC(=O)C(C)(C)N1CCN(c2cccc(F)c2)CC1 [Compound 44] | < 5.00
51 | CC(C)CNC(=O)C(C)(C)N1CCC(c2ccccc2F)CC1 [Compound 91] | 6.40
52 | CC(C)CNC(=O)C(C)(C)N1CC=C(c2ccccc2N(C)C)CC1 [Compound 67] | < 5.00
53 | CC(C)(C(=O)NC1CCC1)N1CCC(c2ccccc2)CC1 [Compound 83] | < 5.00
54 | CC(C)CNC(=O)C(C)(C)N1CCN(c2ccc(F)cc2F)CC1 [Compound 37] | < 5.00
55 | CC(C)(C(=O)NC1CC1)N1CCN(c2cccc(F)c2F)CC1 [Compound 33] | 5.41
56 | Cc1cccc(N2CCN(C(C)(C)C(=O)NCC(C)C)CC2)c1 [Compound 43] | < 5.00
57 | Cc1ncccc1C1CCN(C(C)(C)C(=O)NCC(C)C)CC1 [Compound 108] | < 5.00
58 | CC(C)CNC(=O)C(C)(C)N1CC=C(c2cccc(CN(C)C)c2)CC1 [Compound 71] | < 5.00
59 | CCC(CC)CNC(=O)C(C)(C)N1CCN(c2cccc(C)c2C)CC1 [Compound 21] | < 5.00
60 | CC(C)CNC(=O)C(C)(C)N1CCN(c2ccccc2C#N)CC1 [Compound 48] | < 5.00
